Measured values taken from publication PMC9653409, “Generative deep learning enables the discovery of a potent and selective RIPK1 inhibitor” (Nature Communications, 2022).
Like-named read-outs stand apart in the source and are kept apart here.

Experiments:
[1] = molecular target: panel of human kinases (kinase named in endpoint) (Homo sapiens, UniProt O75716); experiment: Kinase inhibitory activity profiling of RI-962@10 µM (406 kinases, Eurofins); format: biochemical; conditions: 10 µM; read-out: Activity (%), STK16(h)
Procedure: (§1) In vitro kinase activity assays were conducted through the Kinase Profiling Services provided by Eurofins (Eurofins, France). The protocol for the RIPK1 assay is briefly described as follows (Protocols for other kinases are very similar and can be found in http://www.eurofins.com/pharmadiscovery). RIPK1 kinase was incubated with the test compound in assay buffer containing 8 mM MOPS (pH 7.0), 0.2 mM EDTA, 250 μM […], 10 mM magnesium acetate, and 10 μM [γ-33P]-ATP for 15 min at room temperature. The reaction was initiated by the addition of the Mg/ATP mixture. After incubation for 40 min at room temperature, and the reaction was stopped by the addition of 3% phosphoric acid. A 10 μL portion of the reaction mixture was then spotted onto a P30 filter mat and washed four times for 4 min in 0.425% phosphoric acid and once in methanol prior to drying and scintillation counting.

[2] = molecular target: panel of human kinases (kinase named in endpoint) (Homo sapiens, UniProt O96017); experiment: as above; format: biochemical; conditions: 10 µM; read-out: Activity (%), CHK2(h)
Procedure: as §1

[3] = molecular target: panel of human kinases (kinase named in endpoint) (Homo sapiens, UniProt P07947); experiment: as above; format: biochemical; conditions: 10 µM; read-out: Activity (%), Yes(h)
Procedure: as §1

[4] = molecular target: panel of human kinases (kinase named in endpoint) (Homo sapiens, UniProt P0C1S8); experiment: as above; format: biochemical; conditions: 10 µM; read-out: Activity (%), Wee1B(h)
Procedure: as §1

[5] = molecular target: panel of human kinases (kinase named in endpoint) (Homo sapiens, UniProt P12931); experiment: as above; format: biochemical; conditions: 10 µM
Procedure: as §1

[6] = molecular target: panel of human kinases (kinase named in endpoint) (Homo sapiens, UniProt P16234, D842V); experiment: as above; format: biochemical; conditions: 10 µM; read-out: Activity (%), PDGFRα(D842V)(h)
Procedure: as §1

[7] = molecular target: panel of human kinases (kinase named in endpoint) (Homo sapiens, UniProt P17252); experiment: as above; format: biochemical; conditions: 10 µM; read-out: Activity (%), PKCα(h)
Procedure: as §1

[8] = molecular target: panel of human kinases (kinase named in endpoint) (Homo sapiens, UniProt P20794); experiment: as above; format: biochemical; conditions: 10 µM; read-out: Activity (%), MAK(h)
Procedure: as §1

[9] = molecular target: panel of human kinases (kinase named in endpoint) (Homo sapiens, UniProt P35916); experiment: as above; format: biochemical; conditions: 10 µM; read-out: Activity (%), Flt4(h)
Procedure: as §1

[10] = molecular target: panel of human kinases (kinase named in endpoint) (Homo sapiens, UniProt P43250); experiment: as above; format: biochemical; conditions: 10 µM; read-out: Activity (%), GRK6(h)
Procedure: as §1

[11] = molecular target: panel of human kinases (kinase named in endpoint) (Homo sapiens, UniProt P43405); experiment: as above; format: biochemical; conditions: 10 µM; read-out: Activity (%), Syk(h)
Procedure: as §1

[12] = molecular target: panel of human kinases (kinase named in endpoint) (Homo sapiens, UniProt P49674); experiment: as above; format: biochemical; conditions: 10 µM; read-out: Activity (%), CK1ε(h)
Procedure: as §1

[13] = molecular target: panel of human kinases (kinase named in endpoint) (Homo sapiens, UniProt P49840); experiment: as above; format: biochemical; conditions: 10 µM; read-out: Activity (%), GSK3α(h)
Procedure: as §1

[14] = molecular target: panel of human kinases (kinase named in endpoint) (Homo sapiens, UniProt P78368); experiment: as above; format: biochemical; conditions: 10 µM; read-out: Activity (%), CK1γ2(h)
Procedure: as §1

[15] = molecular target: panel of human kinases (kinase named in endpoint) (Homo sapiens, UniProt Q04759); experiment: as above; format: biochemical; conditions: 10 µM; read-out: Activity (%), PKCθ(h)
Procedure: as §1

[16] = molecular target: panel of human kinases (kinase named in endpoint) (Homo sapiens, UniProt Q13177); experiment: as above; format: biochemical; conditions: 10 µM; read-out: Activity (%), PAK2(h)
Procedure: as §1

[17] = molecular target: panel of human kinases (kinase named in endpoint) (Homo sapiens, UniProt Q14004); experiment: as above; format: biochemical; conditions: read-out: Activity (%), CDK13/cyclinK(h)
Procedure: as §1

[18] = molecular target: panel of human kinases (kinase named in endpoint) (Homo sapiens, UniProt Q5VT25); experiment: as above; format: biochemical; conditions: 10 µM; read-out: Activity (%), MRCKα(h)
Procedure: as §1

[19] = molecular target: panel of human kinases (kinase named in endpoint) (Homo sapiens, UniProt Q86V86); experiment: as above; format: biochemical; conditions: 10 µM; read-out: Activity (%), Pim-3(h)
Procedure: as §1

[20] = molecular target: panel of human kinases (kinase named in endpoint) (Homo sapiens, UniProt Q92918); experiment: as above; format: biochemical; conditions: 10 µM; read-out: Activity (%), HPK1(h)
Procedure: as §1

[21] = molecular target: panel of human kinases (kinase named in endpoint) (Homo sapiens, UniProt Q96PY6); experiment: as above; format: biochemical; conditions: 10 µM; read-out: Activity (%), NEK1(h)
Procedure: as §1

[22] = molecular target: panel of human kinases (kinase named in endpoint) (Homo sapiens, UniProt Q9H093); experiment: as above; format: biochemical; conditions: 10 µM; read-out: Activity (%), NUAK2(h)
Procedure: as §1

[23] = molecular target: panel of human kinases (kinase named in endpoint) (Homo sapiens, UniProt Q9HAZ1); experiment: as above; format: biochemical; conditions: 10 µM; read-out: Activity (%), CLK4(h)
Procedure: as §1

[24] = molecular target: panel of human kinases (kinase named in endpoint) (Homo sapiens, UniProt Q9NY57); experiment: as above; format: biochemical; conditions: 10 µM; read-out: Activity (%), STK32B(h)
Procedure: as §1

[25] = molecular target: panel of human kinases (kinase named in endpoint) (Homo sapiens, UniProt Q9P0L2); experiment: as above; format: biochemical; conditions: 10 µM; read-out: Activity (%), MARK1(h)
Procedure: as §1

[26] = Maximum tolerated dose study in mice

Sequence of panel of human kinases (kinase named in endpoint) (Homo sapiens, UniProt P12931) (P12931 whole entry): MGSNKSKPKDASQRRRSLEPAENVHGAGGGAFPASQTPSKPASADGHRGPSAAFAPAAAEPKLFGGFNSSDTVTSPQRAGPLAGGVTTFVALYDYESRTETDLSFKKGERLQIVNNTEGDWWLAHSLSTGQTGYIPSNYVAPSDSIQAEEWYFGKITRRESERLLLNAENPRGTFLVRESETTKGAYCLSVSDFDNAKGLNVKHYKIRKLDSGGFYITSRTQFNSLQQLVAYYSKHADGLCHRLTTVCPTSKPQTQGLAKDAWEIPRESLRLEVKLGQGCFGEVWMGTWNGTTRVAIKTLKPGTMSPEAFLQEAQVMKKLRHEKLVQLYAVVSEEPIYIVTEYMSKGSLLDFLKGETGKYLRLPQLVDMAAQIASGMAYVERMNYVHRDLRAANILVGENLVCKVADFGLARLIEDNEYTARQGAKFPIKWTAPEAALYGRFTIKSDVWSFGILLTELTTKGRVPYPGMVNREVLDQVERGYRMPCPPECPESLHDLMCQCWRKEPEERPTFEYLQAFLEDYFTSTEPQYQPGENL
Sequence of panel of human kinases (kinase named in endpoint) (Homo sapiens, UniProt Q14004) (Q14004 whole entry): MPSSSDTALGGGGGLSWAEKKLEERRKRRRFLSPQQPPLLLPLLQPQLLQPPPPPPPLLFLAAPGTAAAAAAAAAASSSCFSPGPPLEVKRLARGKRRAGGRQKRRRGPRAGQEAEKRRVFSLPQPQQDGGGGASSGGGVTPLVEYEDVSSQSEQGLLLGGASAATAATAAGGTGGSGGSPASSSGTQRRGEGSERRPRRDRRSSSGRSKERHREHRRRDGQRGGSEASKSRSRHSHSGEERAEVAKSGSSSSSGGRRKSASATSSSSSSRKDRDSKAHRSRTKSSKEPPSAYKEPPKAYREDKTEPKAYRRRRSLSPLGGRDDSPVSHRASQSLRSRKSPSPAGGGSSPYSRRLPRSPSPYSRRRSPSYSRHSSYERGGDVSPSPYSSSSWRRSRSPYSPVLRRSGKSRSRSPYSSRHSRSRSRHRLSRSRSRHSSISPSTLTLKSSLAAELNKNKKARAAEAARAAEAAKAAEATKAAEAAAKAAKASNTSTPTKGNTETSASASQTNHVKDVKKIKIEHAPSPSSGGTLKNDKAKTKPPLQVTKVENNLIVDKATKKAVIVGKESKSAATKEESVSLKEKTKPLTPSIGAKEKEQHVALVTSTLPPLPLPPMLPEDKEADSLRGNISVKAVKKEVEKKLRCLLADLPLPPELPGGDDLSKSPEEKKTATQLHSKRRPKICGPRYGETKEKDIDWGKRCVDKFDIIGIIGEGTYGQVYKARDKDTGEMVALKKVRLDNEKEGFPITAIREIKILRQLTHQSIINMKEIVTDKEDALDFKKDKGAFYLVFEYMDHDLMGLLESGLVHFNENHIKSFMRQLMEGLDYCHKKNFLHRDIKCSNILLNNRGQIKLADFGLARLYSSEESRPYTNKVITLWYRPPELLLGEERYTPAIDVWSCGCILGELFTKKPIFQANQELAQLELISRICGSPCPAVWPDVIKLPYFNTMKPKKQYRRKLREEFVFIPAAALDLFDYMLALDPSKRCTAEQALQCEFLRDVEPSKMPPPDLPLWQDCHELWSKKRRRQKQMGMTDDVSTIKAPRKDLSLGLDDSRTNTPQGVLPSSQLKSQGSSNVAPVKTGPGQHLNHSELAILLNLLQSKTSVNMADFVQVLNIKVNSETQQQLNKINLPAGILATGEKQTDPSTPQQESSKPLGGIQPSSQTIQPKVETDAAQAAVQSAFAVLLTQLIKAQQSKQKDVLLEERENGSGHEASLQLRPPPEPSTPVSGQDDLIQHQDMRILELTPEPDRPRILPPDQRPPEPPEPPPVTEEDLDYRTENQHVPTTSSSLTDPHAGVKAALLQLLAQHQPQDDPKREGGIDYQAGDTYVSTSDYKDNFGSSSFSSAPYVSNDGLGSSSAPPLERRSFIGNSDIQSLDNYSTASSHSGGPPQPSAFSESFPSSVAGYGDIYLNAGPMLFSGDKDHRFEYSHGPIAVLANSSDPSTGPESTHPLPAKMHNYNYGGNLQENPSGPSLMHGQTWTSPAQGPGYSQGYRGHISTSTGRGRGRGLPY
Sequence of panel of human kinases (kinase named in endpoint) (Homo sapiens, UniProt Q13177) (Q13177 whole entry): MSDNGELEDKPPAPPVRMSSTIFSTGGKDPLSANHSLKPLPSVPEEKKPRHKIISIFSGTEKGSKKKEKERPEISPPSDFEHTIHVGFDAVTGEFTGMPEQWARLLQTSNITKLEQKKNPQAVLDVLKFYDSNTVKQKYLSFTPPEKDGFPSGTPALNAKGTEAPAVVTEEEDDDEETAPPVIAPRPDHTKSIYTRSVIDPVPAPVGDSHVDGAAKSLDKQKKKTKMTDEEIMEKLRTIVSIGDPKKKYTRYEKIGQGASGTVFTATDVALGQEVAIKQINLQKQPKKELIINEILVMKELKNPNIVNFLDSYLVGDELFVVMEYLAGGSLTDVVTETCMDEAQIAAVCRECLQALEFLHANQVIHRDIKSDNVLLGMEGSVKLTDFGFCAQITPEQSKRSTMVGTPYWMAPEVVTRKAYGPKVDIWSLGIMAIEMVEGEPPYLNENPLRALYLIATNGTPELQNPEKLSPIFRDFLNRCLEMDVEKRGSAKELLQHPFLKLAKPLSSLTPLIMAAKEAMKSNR
Sequence of panel of human kinases (kinase named in endpoint) (Homo sapiens, UniProt O75716) (O75716 whole entry): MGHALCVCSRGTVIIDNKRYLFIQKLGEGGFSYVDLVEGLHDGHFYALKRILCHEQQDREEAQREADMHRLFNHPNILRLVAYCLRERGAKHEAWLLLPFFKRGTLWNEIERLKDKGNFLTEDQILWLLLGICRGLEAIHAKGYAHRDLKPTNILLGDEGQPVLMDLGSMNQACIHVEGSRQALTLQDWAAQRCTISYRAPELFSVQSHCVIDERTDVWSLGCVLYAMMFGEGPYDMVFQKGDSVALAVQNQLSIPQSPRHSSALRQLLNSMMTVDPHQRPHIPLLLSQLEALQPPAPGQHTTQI
Sequence of panel of human kinases (kinase named in endpoint) (Homo sapiens, UniProt Q04759) (Q04759 whole entry): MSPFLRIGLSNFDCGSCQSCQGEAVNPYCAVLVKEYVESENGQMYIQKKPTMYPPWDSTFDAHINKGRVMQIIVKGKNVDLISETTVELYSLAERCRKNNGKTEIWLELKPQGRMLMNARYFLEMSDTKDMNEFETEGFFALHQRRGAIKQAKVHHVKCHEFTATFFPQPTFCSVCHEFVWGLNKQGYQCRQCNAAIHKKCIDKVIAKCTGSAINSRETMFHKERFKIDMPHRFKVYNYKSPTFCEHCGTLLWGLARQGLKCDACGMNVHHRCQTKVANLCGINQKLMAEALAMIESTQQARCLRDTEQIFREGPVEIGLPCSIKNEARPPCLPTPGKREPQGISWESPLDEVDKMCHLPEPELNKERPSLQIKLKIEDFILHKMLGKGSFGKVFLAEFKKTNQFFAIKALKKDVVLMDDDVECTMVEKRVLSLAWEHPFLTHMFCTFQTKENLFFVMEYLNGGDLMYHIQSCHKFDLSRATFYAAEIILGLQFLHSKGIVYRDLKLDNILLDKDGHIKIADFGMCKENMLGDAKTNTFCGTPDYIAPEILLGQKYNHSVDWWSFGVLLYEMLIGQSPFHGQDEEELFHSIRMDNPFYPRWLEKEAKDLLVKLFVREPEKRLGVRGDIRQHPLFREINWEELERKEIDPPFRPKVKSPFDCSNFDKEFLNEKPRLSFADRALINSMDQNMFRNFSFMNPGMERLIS
Sequence of panel of human kinases (kinase named in endpoint) (Homo sapiens, UniProt P49674) (P49674 whole entry): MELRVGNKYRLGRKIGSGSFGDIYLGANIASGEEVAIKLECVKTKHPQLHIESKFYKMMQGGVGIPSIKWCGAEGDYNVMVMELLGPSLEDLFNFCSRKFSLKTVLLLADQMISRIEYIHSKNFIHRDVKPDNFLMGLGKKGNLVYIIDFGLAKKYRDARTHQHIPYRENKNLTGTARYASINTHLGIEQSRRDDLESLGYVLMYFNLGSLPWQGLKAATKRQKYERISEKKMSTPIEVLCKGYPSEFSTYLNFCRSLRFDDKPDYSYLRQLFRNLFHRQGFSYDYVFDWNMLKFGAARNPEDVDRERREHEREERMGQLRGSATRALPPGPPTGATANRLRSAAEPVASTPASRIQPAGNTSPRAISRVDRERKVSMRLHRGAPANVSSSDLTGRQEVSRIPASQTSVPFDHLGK
Sequence of panel of human kinases (kinase named in endpoint) (Homo sapiens, UniProt P49840) (P49840 whole entry): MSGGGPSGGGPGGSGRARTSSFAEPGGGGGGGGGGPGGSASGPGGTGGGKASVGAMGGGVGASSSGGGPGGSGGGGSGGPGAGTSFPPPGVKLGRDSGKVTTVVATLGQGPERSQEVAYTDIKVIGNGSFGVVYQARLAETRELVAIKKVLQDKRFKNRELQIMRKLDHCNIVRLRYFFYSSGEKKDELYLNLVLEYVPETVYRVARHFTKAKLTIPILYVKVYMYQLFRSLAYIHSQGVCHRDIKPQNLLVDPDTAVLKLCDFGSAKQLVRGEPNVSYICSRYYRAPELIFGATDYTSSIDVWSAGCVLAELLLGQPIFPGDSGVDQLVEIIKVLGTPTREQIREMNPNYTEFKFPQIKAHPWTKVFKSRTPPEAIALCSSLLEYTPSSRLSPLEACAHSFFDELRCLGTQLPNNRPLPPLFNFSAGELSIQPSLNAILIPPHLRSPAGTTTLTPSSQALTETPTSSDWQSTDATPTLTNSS

CC(C)C(=O)Nc1nc2cc(-c3ccc4c(c3)c(C(=O)NC(C)c3ccccc3)cn4C)ccn2n1 (stereo not shown) [RI-962]
activity at 10 µM [1]: 100% | activity at 10 µM [2]: 98% | activity at 10 µM [3]: 97% | activity at 10 µM [4]: 95% | activity at 10 µM ([5]; read-out: Activity (%), Src(1-530)(h)): 95% | activity at 10 µM ([5]; read-out: Activity (%), cSRC(h)): 100% | activity at 10 µM [6]: 104% | activity at 10 µM [7]: 97% | activity at 10 µM [8]: 126% | activity at 10 µM [9]: 86% | activity at 10 µM [10]: 108% | activity at 10 µM [11]: 55% | activity at 10 µM [12]: 83% | activity at 10 µM [13]: 112% | activity at 10 µM [14]: 88% | activity at 10 µM [15]: 131% | activity at 10 µM [16]: 84% | activity at 10 µM [17]: 100% | activity at 10 µM [18]: 94% | activity at 10 µM [19]: 111% | activity at 10 µM [20]: 92% | activity at 10 µM [21]: 93% | activity at 10 µM [22]: 86% | activity at 10 µM [23]: 103% | activity at 10 µM [24]: 85% | activity at 10 µM [25]: 99% | impact on mouse organs (H&E staining) ([26]; 250mg/kg): no obvious impact on different mouse organs | tolerability observations ([26]; doses up to 250 mg/kg): no observed weight loss and no other side effects
